25 molecules from patent US9242984B2, “Pyrazolyl derivatives as Syk inhibitors” (Merck Sharp & Dohme Corp., priority 2012, dated 2016) can be followed below.

In this assay the target is T1, recombinant human Syk (GST-hSyk fusion protein) (Homo sapiens, UniProt P43405).
T1 construct: purchased Carna Biosciences 08-176
Nature of the assay: Homogeneous Time-Resolved Fluorescence (HTRF) assay for the recombinant human Syk enzyme. It counts as biochemical. The settings on record: IC50 class; 10-dose titration, 25 μM ATP; read-out: rhSYK Activity. The method, boiled down:
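IC50 came from a four-parameter fit over ten doses, 10 μM to 0.508 nM, with HTRF read-out (Eu-anti-pTyr antibody, SA-APC, EDTA stop, 30 min). The enzyme, 5 pM GST-hSyk, met compound for 10 min, then phosphorylated 250 nM biotin-peptide with 25 μM ATP and 5 mM Mg for 45 min at room temperature, pH 7.5.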
(TR-FRET usually uses a lanthanide donor and a delayed reading to cut background.)
In the case of `Cc1cc(Nc2nccc(C(F)(F)F)n2)cc(-c2cnn(Cc3ccnnc3)c2)c1` [Example 3.32, N-{3-methyl-5-[1-(pyridazin-4-ylmethyl)-1H-pyrazol-4-yl]phenyl}-4-(trifluoromethyl)pyrimidin-2-amine], the IC50 was at most 100 nM. The value for `Cc1cc(Nc2nccc(C(F)(F)F)n2)cc(-c2cnn(CC3CNC(=O)O3)c2)c1` (stereo not shown) [Example 3.33, 5-{[4-(3-methyl-5-{[4-(trifluoromethyl)pyrimidin-2-yl]amino}-phenyl)-1H-pyrazol-1-yl]methyl}-1,3-oxazolidin-2-one] was at most 100 nM; that for `CCC(C(=O)O)n1cc(-c2cc(C)cc(Nc3nccc(C(F)(F)F)n3)c2)cn1` (stereo not shown) [Example 3.34, 2-[4-(3-methyl-5-{[4-(trifluoromethyl)pyrimidin-2-yl]amino}-phenyl)-1H-pyrazol-1-yl]butanoic acid] was at most 100 nM. For the molecule `Cc1cc(Nc2nccc(C(F)(F)F)n2)cc(-c2cnn(C(C)C(=O)O)c2)c1` (stereo not shown) [Example 3.35, 2-[4-(3-methyl-5-{[4-(trifluoromethyl)pyrimidin-2-yl]amino}-phenyl)-1H-pyrazol-1-yl]propanoic acid], the IC50 was at most 100 nM. The value for `Cc1cc(Nc2nccc(C(F)(F)F)n2)cc(-c2cnn(CCO)c2)c1` [Example 3.36, 2-[4-(3-methyl-5-{[4-(trifluoromethyl)-pyrimidin-2-yl]amino}-phenyl)-1H-pyrazol-1-yl]ethanol] was at most 100 nM. Turning to `Cc1cc(Nc2nccc(C(F)(F)F)n2)cc(-c2cnn(CC(N)=O)c2)c1` [Example 3.37, 2-[4-(3-methyl-5-{[4-(trifluoromethyl)pyrimidin-2-yl]amino}-phenyl)-1H-pyrazol-1-yl]acetamide], the IC50 is at most 100 nM. The value for `Cc1cc(Nc2nccc(OCCO)n2)cc(-c2cnn(CCC(N)=O)c2)c1` [Example 3.38, 3-[4-(3-{[4-(2-hydroxyethoxy)pyrimidin-2-yl]amino}-5-methylphenyl)-1H-pyrazol-1-yl]propanamide] was at most 100 nM. The value for `Cc1cc(Nc2nccc(C(F)(F)F)n2)cc(-c2cnn(CS(N)(=O)=O)c2)c1` [Example 3.39, 1-[4-(3-methyl-5-{[4-(trifluoromethyl)pyrimidin-2-yl]amino}-phenyl)-1H-pyrazol-1-yl]methane-sulfonamide] was at most 100 nM.

On to `COc1ccnc(Nc2cc(C)cc(-c3cnn(CCC(N)=O)c3)c2)n1` [Example 3.40, 3-(4-{3-[(4-methoxypyrimidin-2-yl)amino]-5-methylphenyl}-1H-pyrazol-1-yl)propanamide], for which the IC50 is at most 100 nM. In the case of `Cc1cc(Nc2nccc(C(F)(F)F)n2)cc(-c2cnn(C[C@@H](O)CO)c2)c1` [Example 3.41, (2R)-3-[4-(3-methyl-5-{[4-(trifluoromethyl)pyrimidin-2-yl]amino}-phenyl)-1H-pyrazol-1-yl]propane-1,2-diol], the IC50 was at most 100 nM.

`Cc1cc(Nc2nccc(C(F)(F)F)n2)cc(-c2cnn(C[C@H](O)CO)c2)c1` [Example 3.42, (2S)-3-[4-(3-methyl-5-{[4-(trifluoromethyl)pyrimidin-2-yl]amino}phenyl)-1H-pyrazol-1-yl]propane-1,2-diol]: the IC50 was at most 100 nM. Under `Cc1cc(Nc2nccc(C(F)(F)F)n2)cc(-c2cnn(CC3CN(C)C(=O)O3)c2)c1` (stereo not shown) [Example 3.46] stands at most 100 nM. Under `Cc1cc(Nc2nccc(C(F)(F)F)n2)cc(-c2cnn(C[C@@H](O)CC#N)c2)c1` [Example 3.47, (3S)-3-hydroxy-4-[4-(3-methyl-5-{[4-(trifluoromethyl)pyrimidin-2-yl]amino}-phenyl)-1H-pyrazol-1-yl]butanenitrile] stands at most 100 nM; under `Cc1cc(Nc2nccc(C(F)(F)F)n2)cc(-c2cnn(CCS(C)(=O)=O)c2)c1` [Example 3.48, N-(3-methyl-5-{1-[2-(methylsulfonyl)ethyl]-1H-pyrazol-4-yl}phenyl)-4-(trifluoromethyl)pyrimidin-2-amine], at most 100 nM; under `COC(=O)CCCn1cc(-c2cc(C)cc(Nc3nccc(C(F)(F)F)n3)c2)cn1` [Example 3.49, methyl 4-[4-(3-methyl-5-{[4-(trifluoromethyl)-pyrimidin-2-yl]amino}-phenyl)-1H-pyrazol-1-yl]butanoate], at most 100 nM. As for `Cc1cc(Nc2nccc(C(F)(F)F)n2)cc(-c2cnn(CCCC(=O)O)c2)c1` [Example 3.50, 4-[4-(3-methyl-5-{[4-(trifluoromethyl)-pyrimidin-2-yl]amino}-phenyl)-1H-pyrazol-1-yl]butanoic acid], the IC50 was at most 100 nM. Under `Cc1cc(Nc2nccc(C(F)(F)F)n2)cc(-c2cnn(C3CCC(C(=O)O)c4ccccc43)c2)c1` (stereo not shown) [Example 3.51, 4-[4-(3-methyl-5-{[4-(trifluoromethyl)pyrimidin-2-yl]amino}phenyl)-1H-pyrazol-1-yl]-1,2,3,4-tetrahydronaphthalene-1-carboxylic acid] stands at most 100 nM.

For the molecule `COC(=O)C1CCC(n2cc(-c3cc(C)cc(Nc4nccc(C(F)(F)F)n4)c3)cn2)c2ccccc21` (stereo not shown) [Example 3.52, methyl 4-[4-(3-methyl-5-{[4-(trifluoromethyl)pyrimidin-2-yl]amino}-phenyl)-1H-pyrazol-1-yl]-1,2,3,4-tetrahydronaphthalene-1-carboxylate], the IC50 lay within 100 to 1000 nM. On to `Cc1cc(Nc2nccc(C(F)(F)F)n2)cc(-c2cnn(CC(O)c3ccc(C(=O)O)cc3)c2)c1` (stereo not shown) [Example 3.53, 4-{1-hydroxy-2-[4-(3-methyl-5-{[4-(trifluoromethyl)pyrimidin-2-yl]amino}-phenyl)-1H-pyrazol-1-yl]ethyl}benzoic acid], for which the IC50 was at most 100 nM. In the case of `COC(=O)c1ccc(C(O)Cn2cc(-c3cc(C)cc(Nc4nccc(C(F)(F)F)n4)c3)cn2)cc1` (stereo not shown) [Example 3.54, methyl 4-{1-hydroxy-2-[4-(3-methyl-5-{[4-(trifluoromethyl)pyrimidin-2-yl]amino}phenyl)-1H-pyrazol-1-yl]ethyl}benzoate], the IC50 is at most 100 nM. The value for `Cc1cc(Nc2cc(C(F)F)ccn2)nc(-c2cnn(CC3CNC(=O)O3)c2)c1` (stereo not shown) [Example 3.81, 5-{[4-(6-{[4-(difluoromethyl)pyridin-2-yl]amino}-4-methylpyridin-2-yl)-1H-pyrazol-1-yl]methyl}-1,3-oxazolidin-2-one] was at most 100 nM. Regarding `O=C1NCC(Cn2cc(-c3cccc(Nc4cc(C(F)F)ccn4)n3)cn2)O1` (stereo not shown) [Example 3.82, 5-{[4-(6-{[4-(difluoromethyl)pyridin-2-yl]amino}pyridin-2-yl)-1H-pyrazol-1-yl]methyl}-1,3-oxazolidin-2-one], the IC50 is at most 100 nM.

Consider `Cc1cc(Nc2cc(C(F)F)ccn2)nc(-c2cnn(CC3CNC(=O)O3)c2)c1` (stereo not shown) [Example 3.83, 5-{[4-(6-{[4-(difluoromethyl)pyridin-2-yl]amino}-4-methylpyridin-2-yl)-1H-pyrazol-1-yl]methyl}-1,3-oxazolidin-2-one], for which the IC50 was at most 100 nM. The value for `O=C1NCC(Cn2cc(-c3cccc(Nc4cc(C(F)F)ccn4)n3)cn2)O1` (stereo not shown) [Example 3.84, 5-{[4-(6-{[4-(difluoromethyl)pyridin-2-yl]amino}pyridin-2-yl)-1H-pyrazol-1-yl]methyl}-1,3-oxazolidin-2-one] was at most 100 nM; that for `Cc1cc(Nc2cc(C(C)(F)F)ccn2)nc(-c2cnn(CC3CNC(=O)O3)c2)c1` (stereo not shown) [Example 3.85, 5-{[4-(6-{[4-(1,1-difluoroethyl)pyridin-2-yl]amino}-4-methylpyridin-2-yl)-1H-pyrazol-1-yl]methyl}-1,3-oxazolidin-2-one] was at most 100 nM.
